Like-named read-outs stand apart in the source and are kept apart here.
What was measured:
[1] = system: HepG2.117 cells; assay: Cell viability by CellTiter-Glo 2.0 (intracellular ATP) in HepG2.117 cells; format: cell-based; conditions: CellTiter-Glo 2.0, HepG2.117 cells, 3 days incubation
Protocol: (§1) The following assay procedure describes the HBV antiviral assay, using HepG2.117 cells, which carry a stably integrated genotype D HBV genome under the control of a Tet-off promoter, and intracellular HBV DNA quantification as endpoint. Cell viability is assessed in parallel by measuring the intracellular ATP content using CellTiter-Glo 2.0 (Promega).
(§2) On day 1, medium is removed from each well, the test articles are diluted in culture medium without doxcycyline and 100 μL was added to cell culture wells (9 concentrations, 4-fold dilution). For each plate, 6 untreated (merely DMSO) wells are included. The final concentration of DMSO in the culture medium is 2%. Each plate is prepared in duplicate (one for HBV DNA extraction, one for CellTiter-Glo 2.0 measurement). The cells are incubated at 37° C. and 5% CO2 for 3 days.
(§3) On day 4, cell viability is assessed using CellTiter-Glo 2.0 and cell lysates are prepared for HBV DNA extraction and subsequent quantification by qPCR.
(§4) Using the other plates, the cell viability is quantified by CellTiter-Glo 2.0 according to the manufacturer's manual. In brief, 100 μL of reagent solution is added to the culture plates and shaken for 2′. The plates are incubated at rt for 10 min and luminescence signal is subsequently measured on a VarioSkan Lux (ThermoFisher) plate reader.
(§5) Cell viability is calculated as follows: % Cell viability=(luminescence value of test sample)/(average luminescence value of 2% DMSO control)×100%. HBV DNA inhibition was calculated as follows: 100−(HBV DNA copy number of test sample)/(average HBV DNA copy number of 2% DMSO control)×100%. No normalization to entecavir is required due to the excellent dynamic window of this assay. The CC50, EC50 and EC90 values were determined by dose-response curves fitted using non-linear regression.

[2] = system: HBV; assay: HBV-DNA antiviral assay using HepG2.117 cells; format: cell-based, HBV genotype D; conditions: HBV DNA inhibition, intracellular HBV DNA by qPCR, HepG2.117 cells, 3 days incubation, read-out: EC50
Protocol: as §1
On day 0, HepG2.117 cells (which are maintained in routine cell culture with doxycycline present in the medium at a final concentration of 1 μg/mL) are seeded in 96-well plates (white with clear bottom) at a density of 2.0×10^4 cells/well (0.1 mL/well) in medium without doxycycline to induce pgRNA transcription and subsequent formation of HBV particles. The cells are incubated at 37° C. and 5% CO2.
as §2, §3
Medium is removed from each well and 100 μL of 0.33% NP-40 in H2O was added to each well. Plates are sealed, incubated at 4° C. for 5 mins, vortexed extensively and centrifuged briefly. Next, 35 μL of lysate is added to 65 μL QuickExtract DNA Extraction Solution (Epicentre) in a PCR plate for each well. PCR plate is incubated at 65° C. for 6 mins, 98° C. for 2 mins and finally cooled to 4° C. HBV DNA is then quantified by qPCR with HBV-specific primers and probes as specified in Table 2 using the Bio-Rad SSOAdvanced Universal Probes Supermix on a CFX96 machine (Bio-Rad). The PCR cycle program consisted of 95° C. for 3 mins, followed by 40 cycles at 95° C. for 10 sec and 60° C. for 30 sec.
A DNA standard is prepared by dilution of an IDT gBlock corresponding to the amplicon with concentrations ranging from 10^2 to 10^8 copies/input (i.e., per 4 μL) and used to generate a standard curve by plotting Cq values vs. HBV DNA standard concentration. The quantity of HBV DNA in each sample is determined by interpolating from the standard curve.
as §5

[3] = Cell viability by CellTiter-Glo 2.0 (intracellular ATP) in HepG2.117 cells; format: cell-based; conditions: human, CellTiter-Glo 2.0, HepG2.117 cells, 3 days incubation
Protocol: as §1, §2, §3, §4, §5

Structure (SMILES) | CC50 [1] | EC50 [2] | CC50 at 3 days [3] | EC50 ([2]; Hepatitis B virus, 72 h)
C=C[C@H](C)Nc1nc2c(c(=O)n1-c1cc3ncn(C)c3cc1F)C[C@@H](C)N(C(=O)c1ccc(Br)c(C(F)(F)F)c1)C2 [Compound 32b, (R)-7-(4-bromo-3-(trifluoromethyl)benzoyl)-2-(((S)-but-3-en-2-yl)amino)-3-(6-fluoro-1-methyl-1H-benzo[d]imidazol-5-yl)-6-methyl-5,6,7,8-tetrahydropyrido[3,4-d]pyrimidin-4(3H)-one] | 21900 nM | < 50 nM |  | 
C=CC(C)Nc1nc2c(c(=O)n1-c1ccc(-c3[nH]nnc3C)cc1)C[C@@H](C)N(C(=O)c1ccc(Br)c(C(F)(F)F)c1)C2 (single isomer, unassigned) [Compound 3b] | > 500 nM | < 50 nM |  | 
C=CC(C)Nc1nc2c(c(=O)n1-c1ccc(C(=O)NC)cc1)C[C@@H](C)N(C(=O)c1ccc(Br)c(C(F)(F)F)c1)C2 (single isomer, unassigned) [Compound 2b] | > 500 nM | < 50 nM |  | 
C=C[C@H](C)Nc1nc2c(c(=O)n1-c1ccc(C(=O)NC)cc1Cl)C[C@@H](C)N(C(=O)c1ccc(Br)c(C(F)(F)F)c1)C2 (atropisomer, axis not shown) [Compound 45, 4-[(6R)-7-[4-bromo-3-(trifluoromethyl)benzoyl]-6-methyl-2-[[(1S)-1-methylallyl]amino]-4-oxo-6,8-dihydro-5H-pyrido[3,4-d]pyrimidin-3-yl]-3-chloro-N-methyl-benzamide] | 30100 nM | < 50 nM |  | 
C=C[C@H](C)Nc1nc2c(c(=O)n1-c1ccc(C(=O)NC)nn1)C[C@@H](C)N(C(=O)c1ccc(Br)c(C(F)(F)F)c1)C2 [Compound 30, 6-((R)-7-(4-bromo-3-(trifluoromethyl)benzoyl)-2-(((S)-but-3-en-2-yl)amino)-6-methyl-4-oxo-5,6,7,8-tetrahydropyrido[3,4-d]pyrimidin-3(4H)-yl)-N-methylpyridazine-3-carboxamide] |  |  | > 50000 nM | < 50 nM
C=C[C@H](C)Nc1nc2c(c(=O)n1-c1ccc3c(cnn3C)c1)C[C@@H](C)N(C(=O)c1ccc(Br)c(C(F)(F)F)c1)C2 [Compound 33, (6R)-7-[4-bromo-3-(trifluoromethyl)benzoyl]-6-methyl-2-[[(1S)-1-methylallyl]amino]-3-(1-methylindazol-5-yl)-6,8-dihydro-5H-pyrido[3,4-d]pyrimidin-4-one] |  |  | > 50000 nM | < 50 nM
C=C[C@H](C)Nc1nc2c(c(=O)n1-c1ccc(C(=O)NC)c(Cl)c1)C[C@@H](C)N(C(=O)c1ccc(Br)c(C(F)(F)F)c1)C2 [Compound 20, 4-((R)-7-(4-bromo-3-(trifluoromethyl)benzoyl)-2-(((S)-but-3-en-2-yl)amino)-6-methyl-4-oxo-5,6,7,8-tetrahydropyrido[3,4-d]pyrimidin-3(4H)-yl)-2-chloro-N-methylbenzamide] |  |  | 2950 nM | < 50 nM
C=C[C@H](C)Nc1nc2c(c(=O)n1-c1cc(Cl)c3c(cnn3C)c1)C[C@@H](C)N(C(=O)c1ccc(Br)c(C(F)(F)F)c1)C2 [Compound 34] |  |  | 11600 nM | < 50 nM
C=C[C@H](C)Nc1nc2c(c(=O)n1-c1ccc(C(=O)NC)cc1Cl)C[C@@H](C)N(C(=O)c1ccc(Br)c(C(F)(F)F)c1)C2 (atropisomer, axis not shown) [Compound 44, 4-[(6R)-7-[4-bromo-3-(trifluoromethyl)benzoyl]-6-methyl-2-[[(1S)-1-methylallyl]amino]-4-oxo-6,8-dihydro-5H-pyrido[3,4-d]pyrimidin-3-yl]-3-chloro-N-methyl-benzamide] |  |  | > 50000 nM | < 50 nM
C=C[C@H](C)Nc1nc2c(c(=O)n1-c1ccc3c(c1)nc(C)n3C)C[C@@H](C)N(C(=O)c1ccc(Br)c(C(F)(F)F)c1)C2 [Compound 28, (R)-7-(4-bromo-3-(trifluoromethyl)benzoyl)-2-(((S)-but-3-en-2-yl)amino)-3-(1,2-dimethyl-1H-benzo[d]imidazol-5-yl)-6-methyl-5,6,7,8-tetrahydropyrido[3,4-d]pyrimidin-4(3H)-one] |  |  | 30500 nM | < 50 nM
C=C[C@H](C)Nc1nc2c(c(=O)n1-c1ccc3ncn(C)c3c1)C[C@@H](C)N(C(=O)c1ccc(Br)c(C(F)(F)F)c1)C2 [Compound 25, (R)-7-(4-bromo-3-(trifluoromethyl)benzoyl)-2-(((S)-but-3-en-2-yl)amino)-6-methyl-3-(1-methyl-1H-benzo[d]imidazol-6-yl)-5,6,7,8-tetrahydropyrido[3,4-d]pyrimidin-4(3H)-one] |  |  | 29700 nM | < 50 nM
C=C[C@H](C)Nc1nc2c(c(=O)n1-c1ccc3c(c1)ncn3C1CC1)C[C@@H](C)N(C(=O)c1ccc(Br)c(C(F)(F)F)c1)C2 [Compound 38, (6R)-7-[4-bromo-3-(trifluoromethyl)benzoyl]-3-(1-cyclopropylbenzimidazol-5-yl)-6-methyl-2-[[(1S)-1-methylallyl]amino]-6,8-dihydro-5H-pyrido[3,4-d]pyrimidin-4-one] |  |  | 24300 nM | < 50 nM
C=C[C@@H](C)Nc1nc2c(c(=O)n1-c1ccc(-c3nncn3C)cc1)C[C@@H](C)N(C(=O)c1ccc(Br)c(C(F)(F)F)c1)C2 [Compound 22, (R)-7-(4-bromo-3-(trifluoromethyl)benzoyl)-2-(((R)-but-3-en-2-yl)amino)-6-methyl-3-(4-(4-methyl-4H-1,2,4-triazol-3-yl)phenyl)-5,6,7,8-tetrahydropyrido[3,4-d]pyrimidin-4(3H)-one] |  |  | > 50000 nM | < 50 nM
C=C[C@H](C)Nc1nc2c(c(=O)n1-c1ccc(-c3cnn(C)c3)cn1)C[C@@H](C)N(C(=O)c1ccc(Br)c(C(F)(F)F)c1)C2 [Compound 37, (6R)-7-[4-bromo-3-(trifluoromethyl)benzoyl]-6-methyl-2-[[(1S)-1-methylallyl]amino]-3-[5-(1-methylpyrazol-4-yl)-2-pyridyl]-6,8-dihydro-5H-pyrido[3,4-d]pyrimidin-4-one] |  |  | > 50000 nM | < 50 nM
